Data published in patent EP4759807A1, “PROTEOLYSIS TARGETING CHIMERA COMPOUND FOR DEGRADING IRAK4 AND USE THEREOF” (Shenzhen Zhongge Biological Technology Co., Ltd., priority 2023, dated 2025).
Counter-ions that a name gives are not always drawn.

Legend:
IRAK4 [1] = target: T1, IRAK4 (Homo sapiens, UniProt Q9NWZ3); test: Hibit fluorescence detection of proteolysis (IRAK4-HiBiT in HEK293T cells); format: cell-based; set-up: host or cells: HEK293T (ATCC); settings: for Dmax: HEK-293T; for DC50: IRAK4-HiBiT, HEK293T cells, 24 h
T1 sequence (Q9NWZ3 1-460): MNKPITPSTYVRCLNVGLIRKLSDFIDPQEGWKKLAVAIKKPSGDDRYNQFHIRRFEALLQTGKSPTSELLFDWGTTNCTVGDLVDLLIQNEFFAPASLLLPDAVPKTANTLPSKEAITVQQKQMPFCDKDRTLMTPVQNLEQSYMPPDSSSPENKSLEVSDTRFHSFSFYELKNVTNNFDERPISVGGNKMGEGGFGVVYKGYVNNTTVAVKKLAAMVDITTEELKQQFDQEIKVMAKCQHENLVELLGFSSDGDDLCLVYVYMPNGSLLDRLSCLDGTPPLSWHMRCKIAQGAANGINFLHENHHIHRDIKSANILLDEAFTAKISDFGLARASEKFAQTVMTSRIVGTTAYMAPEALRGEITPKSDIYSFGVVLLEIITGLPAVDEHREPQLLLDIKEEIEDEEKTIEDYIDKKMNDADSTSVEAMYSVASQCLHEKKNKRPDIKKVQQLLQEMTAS
In short: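 Degradation read-out: luminescence from lytic HiBiT detection (15 min, room temperature) after 24 h compound exposure (37 °C, 5% CO2) of HEK293T cells transiently expressing IRAK4 fused to a HiBiT tag. Data fitted to a bell-shaped four-parameter model giving two EC50 values.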

IRAK4 [2] = target: T1, IRAK4; test: WB detection of proteolysis (Western Blot, THP-1 cells); format: cell-based; settings: Western Blot, THP-1 cells, 24 h; for DC50: read-out: DC50; for Dmax: read-out: Dmax
In short: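 IRAK4 level in RIPA lysates read by Western blot with Odyssey imaging; values from bell-shaped non-linear fit with two four-parameter sections (Plateau1, Plateau2, Dip, LogEC50_1/2, nH1/2).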

| Structure (SMILES) | Dmax (IRAK4 [1]) [%] | DC50 (IRAK4 [1]) [nM] | DC50 (IRAK4 [2]) [nM] | Dmax (IRAK4 [2]) [%] |
| --- | --- | --- | --- | --- |
| Cn1c(=O)n(C2CCC(=O)NC2=O)c2cccc(N3CCC4(CCN(C[C@H]5CC[C@H](n6cc(-n7cc(-c8cnn9ccc(N%10CCNCC%10)nc89)nn7)c(C(F)F)n6)CC5)C4)CC3)c21 (some centres unmarked) [Example 128, 3-(4-(2-(((1r,4r)-4-(3-(difluoromethyl)-4-(4-(5-(piperazin-1-yl)pyrazolo[1,5-a]pyrimidin-3-yl)-1H-1,2,3-triazol-1-yl)-1H-pyrazol-1-yl)cyclohexyl)methyl)-2,8-diazaspiro[4.5]dec-8-yl)-3-methyl-2-oxo-2,3-dihydro-1H-benzo[d]imidazol-1-yl)piperidine-2,6-dione dihydrochloride] | > 80 | < 0.5 | < 10 | > 70 |
| Cn1c(=O)n(C2CCC(=O)NC2=O)c2cccc(N3CCN(C[C@H]4CC[C@H](n5cc(-n6cc(-c7cnn8ccc(N9CCNCC9)nc78)nn6)c(C(F)F)n5)CC4)CC3)c21 (stereo partly drawn) [Example 132, 3-(4-(1R,4R)-4-(3-difluoromethyl)-4-(4-(5-(piperazin-1-yl)pyrazolo[1,5-a]pyrimidin-3-yl)-1H-1,2,3-triazol-1-yl)-1H-pyrazol-1-yl)cyclohexyl)methyl)piperazin-1-yl)-3-methyl-2-oxo-2,3-dihydro-1H-benzoimidazol-1-yl)piperidine-2,6-dione dihydrochloride] | > 80 | 0.5 to 1 | < 10 | 60 to 70 |
| Cn1c(=O)n(C2CCC(=O)NC2=O)c2cccc(N3CCC(N4CCN(C[C@H]5CC[C@H](n6cc(-n7cc(-c8cnn9ccc(N%10CCC(O)CC%10)nc89)nn7)c(C(F)F)n6)CC5)CC4)CC3)c21 (some centres unmarked) [Example 135] | > 80 | < 0.5 | < 10 | > 70 |
| Cn1c(=O)n(C2CCC(=O)NC2=O)c2cccc(N3CCC4(CCN(C[C@H]5CC[C@H](n6cc(-n7cc(-c8cnn9ccc(N%10CCC(O)CC%10)nc89)nn7)c(C(F)F)n6)CC5)CC4)CC3)c21 (some centres unmarked) [Example 136] | > 80 | < 0.5 | < 10 | > 70 |
| Cn1c(=O)n(C2CCC(=O)NC2=O)c2cccc(N3CCC4(CCN(C[C@H]5CC[C@H](n6cc(-n7cc(-c8cnn9ccc(N%10CCC(O)CC%10)nc89)nn7)c(C(F)F)n6)CC5)C4)CC3)c21 (some centres unmarked) [Example 139] | > 80 | < 0.5 | < 10 | > 70 |
| Cn1c(=O)n(C2CCC(=O)NC2=O)c2cccc(N3CCN(C[C@H]4CC[C@H](n5cc(-n6cc(-c7cnn8ccc(N9CCC(O)CC9)nc78)nn6)c(C(F)F)n5)CC4)CC3)c21 (some centres unmarked) [Example 140] | > 80 | < 0.5 | 10 to 30 | > 70 |
| Cn1c(=O)n(C2CCC(=O)NC2=O)c2cccc(N3CCN(C[C@H]4CC[C@H](n5cc(-n6cc(-c7cnn8ccc(N9CCC[C@H](O)C9)nc78)nn6)c(C(F)F)n5)CC4)CC3)c21 (some centres unmarked) [Example 141] | > 80 | < 0.5 | < 10 | > 70 |
| Cn1c(=O)n(C2CCC(=O)NC2=O)c2cccc(N3CCC4(CCN(C[C@H]5CC[C@H](n6cc(-n7cc(-c8cnn9ccc(N%10CCC[C@H](O)C%10)nc89)nn7)c(C(F)F)n6)CC5)CC4)CC3)c21 (some centres unmarked) [Example 142] | > 80 | < 0.5 | < 10 | > 70 |
| Cn1c(=O)n(C2CCC(=O)NC2=O)c2cccc(N3CCN(C4CCN(C[C@H]5CC[C@H](n6cc(-n7cc(-c8cnn9ccc(N%10CCC[C@H](O)C%10)nc89)nn7)c(C(F)F)n6)CC5)CC4)CC3)c21 (some centres unmarked) [Example 144] | > 80 | < 0.5 | < 10 | > 70 |
| Cn1c(=O)n(C2CCC(=O)NC2=O)c2cccc(N3CCC4(CCN(C[C@H]5CC[C@H](n6cc(-n7cc(-c8cnn9ccc(N%10CCC[C@H](O)C%10)nc89)nn7)c(C(F)F)n6)CC5)C4)CC3)c21 (some centres unmarked) [Example 145] | > 80 | < 0.5 | < 10 | > 70 |
| Cn1c(=O)n(C2CCC(=O)NC2=O)c2cccc(N3CCC4(CCN(C[C@H]5CC[C@H](n6cc(-n7cc(-c8cnn9ccc(N[C@H]%10CCCC[C@H]%10O)nc89)nn7)c(C(F)F)n6)CC5)C4)CC3)c21 (some centres unmarked) [Example 147] | > 80 | < 0.5 | 10 to 30 | > 70 |
| Cn1c(=O)n(C2CCC(=O)NC2=O)c2cccc(N3CCC4(CCN(C[C@H]5CC[C@H](n6cc(-n7cc(-c8cnn9ccc(N[C@H]%10CCCC[C@H]%10O)nc89)nn7)c(C(F)F)n6)CC5)CC4)CC3)c21 (some centres unmarked) [Example 148] | > 80 | < 0.5 | 10 to 30 | > 70 |
| Cn1c(=O)n(C2CCC(=O)NC2=O)c2cccc(N3CCC4(CCN(C[C@H]5CC[C@H](n6cc(-n7cc(-c8cnn9ccc(N[C@@H]%10CCCC[C@@H]%10O)nc89)nn7)c(C(F)F)n6)CC5)CC4)CC3)c21 (some centres unmarked) [Example 151] | > 80 | < 0.5 | < 10 | > 70 |
| Cn1c(=O)n(C2CCC(=O)NC2=O)c2cccc(N3CCN(C4CCN(C[C@H]5CC[C@H](n6cc(-n7cc(-c8cnn9ccc(N[C@@H]%10CCCC[C@@H]%10O)nc89)nn7)c(C(F)F)n6)CC5)CC4)CC3)c21 (some centres unmarked) [Example 153] | > 80 | < 0.5 | < 10 | > 70 |
| Cn1c(=O)n(C2CCC(=O)NC2=O)c2cccc(N3CCC4(CCN(C[C@H]5CC[C@H](n6cc(-n7cc(-c8cnn9ccc(N[C@@H]%10CCCC[C@@H]%10O)nc89)nn7)c(C(F)F)n6)CC5)C4)CC3)c21 (some centres unmarked) [Example 154] | > 80 | < 0.5 | < 10 | > 70 |
| Cn1c(=O)n(C2CCC(=O)NC2=O)c2cccc(N3CCC(N4CCN(C[C@H]5CC[C@H](n6cc(-n7cc(-c8cnn9ccc(N[C@@H]%10CCCC[C@@H]%10O)nc89)nn7)c(C(F)F)n6)CC5)CC4)CC3)c21 (some centres unmarked) [Example 155] | > 80 | < 0.5 | < 10 | > 70 |
| Cn1c(=O)n(C2CCC(=O)NC2=O)c2cccc(N3CCN(C[C@H]4CC[C@H](n5cc(-n6cc(-c7cnn8ccc(N9CCC[C@@H](O)C9)nc78)nn6)c(C(F)F)n5)CC4)CC3)c21 (some centres unmarked) [Example 243] | > 80 | < 0.5 | < 10 | > 70 |
| Cn1c(=O)n(C2CCC(=O)NC2=O)c2cccc(N3CCN(C4CCN(C[C@H]5CC[C@H](n6cc(-n7cc(-c8cnn9ccc(N%10CCC[C@@H](O)C%10)nc89)nn7)c(C(F)F)n6)CC5)CC4)CC3)c21 (some centres unmarked) [Example 245] | > 80 | < 0.5 | < 10 | > 70 |
| Cn1c(=O)n(C2CCC(=O)NC2=O)c2cccc(N3CCC4(CCN(C[C@H]5CC[C@H](n6cc(-n7cc(-c8cnn9ccc(N%10CCC[C@@H](O)C%10)nc89)nn7)c(C(F)F)n6)CC5)C4)CC3)c21 (some centres unmarked) [Example 248] | > 80 | < 0.5 | < 10 | > 70 |
| C[C@H]1CN(c2cccc3c2n(C)c(=O)n3C2CCC(=O)NC2=O)CCN1C[C@H]1CC[C@H](n2cc(-n3cc(-c4cnn5ccc(N6CCC[C@H](N)C6)nc45)nn3)c(C(F)F)n2)CC1 (some centres unmarked) [Example 285] | > 80 | < 0.5 | > 30 | 60 to 70 |
